Ki data for 28 compounds are collected here from patent US5663148A, “Anaphylatoxin receptor ligands containing lipophilic residues” (Abbott Laboratories, priority 1994, dated 1997).

One may read the Ki as the dissociation constant of the complex between target and ligand, obtained from inhibition or displacement.

*1 amine or outer side, *2 acyl side, *3 side chain or, on linkers, in order; H or OH if unused. Where a SMILES comes first, the peptide text is derived from it. [ ]: non-standard residue; d: D form. The star is where a group is joined. X13 = O=C([C@H](CC1CCCCC1)N(CCc1ccccc1)[*:1])[*:2]; X5 = O=C([C@H](CC1CCCCC1)N(Cc1ccccc1)[*:1])[*:2]; X9 = CN(CCCc1ccccc1)[C@@H](CC1CCCCC1)C(=O)*; d(hhPhe) = N[C@H](CCCc1ccccc1)C(=O)O; X4 = O=C(C=Cc1ccccc1[N+](=O)[O-])*; Hydrocinnamoyl = O=C(CCc1ccccc1)*; Cha = N[C@@H](CC1CCCCC1)C(=O)O; X10 = O=C(Cc1c[nH]c2ccccc12)*; X12 = CC(c1ccccc1)*; Bn = c1ccc(C*)cc1

The test concerns the target T1, C5a receptor (Homo sapiens, UniProt P21730).
T1 construct: from tissue; host or cells: polymorphonuclear leukocyte (PMNL) membrane fragments
T1 sequence (P21730 1-350): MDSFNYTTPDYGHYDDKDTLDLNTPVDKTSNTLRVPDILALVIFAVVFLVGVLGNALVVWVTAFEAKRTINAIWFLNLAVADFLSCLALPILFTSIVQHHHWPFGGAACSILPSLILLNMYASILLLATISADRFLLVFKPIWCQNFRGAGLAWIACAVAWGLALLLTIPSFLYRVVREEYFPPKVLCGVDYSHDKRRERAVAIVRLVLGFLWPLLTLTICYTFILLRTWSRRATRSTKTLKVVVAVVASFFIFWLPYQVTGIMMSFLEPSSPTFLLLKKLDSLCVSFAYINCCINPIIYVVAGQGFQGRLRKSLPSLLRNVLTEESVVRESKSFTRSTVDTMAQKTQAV
Description: Anaphylatoxin (C5a) receptor binding Ki determination, 125I-C5a on PMNL membrane fragments. Conditions: read-out: Ki (In vitro C5a Receptor Binding Potency). The protocol:
The membrane-bound radiolabeled C5a was separated from the free radiolabeled C5a by filtration, and the recovered gamma radioactivity was measured. […] Free and membrane-bound ligand were separated by filtration.

With `CC(C)C[C@H](NC(=O)[C@H](CC1CCCCC1)NC(=O)CCCCCN)C(=O)NC(CCCc1ccccc1)C(=O)N[C@@H](CCCNC(=N)N)C(=O)O` (single isomer, unassigned) [Example 87], the inhibitory constant (Ki) is 5800 nM.
As for `CC(C)C[C@H](NC(=O)CNC(=O)[C@H](CC1CCCCC1)NCCc1ccccc1)C(=O)N[C@H](CCCc1ccccc1)C(=O)N[C@@H](CCCNC(=N)N)C(=O)O` [Example 78, N-(2-Phenethyl)-{(2S)-2-Amino-3-cyclohexylpropanoyl}-Glycyl-Leucyl-{(R)-2-Amino-5-phenylpentanoyl}-Arginyl-OH] (H-[X13]GL[d(hhPhe)]R-OH), the figure is 70 nM; as for `CC(C)C[C@H](NC(=O)CNC(=O)[C@H](CC1CCCCC1)N(C)CCCc1ccccc1)C(=O)N[C@H](CCCc1ccccc1)C(=O)N[C@@H](CCCNC(=N)N)C(=O)O` [Example 103, N-(3-Phenylpropyl)-N-methyl-{(2S)-2-Amino-3-cyclohexylpropanoyl}-Glycyl-Leucyl-{(R)-2-Amino-5-phenylpentanoyl}-Arginyl-OH] (X9-GL[d(hhPhe)]R-OH), 1320 nM.
As for `CC(=O)N[C@@H](CC1CCCCC1)C(=O)NCC(=O)N[C@@H](CC(C)C)C(=O)NC(CCCc1ccccc1)C(=O)N[C@@H](CCCNC(=N)N)C(=O)O` (single isomer, unassigned) [Example 46, N-Acetyl-{(2S)-2-Amino-3-cyclohexylpropanoyl}-Glycyl-Leucyl-{(R/S)-2-Amino-5-phenylpentanoyl}-Arginyl-OH], the figure is 22000 nM; as for `CN[C@@H](Cc1ccccc1)C(=O)N[C@@H](CCCCN)C(=O)N1CCC[C@H]1C(=O)N[C@@H](CC1CCCCC1)C(=O)N[C@@H](C)C(=O)N[C@@H](CC(C)C)C(=O)NC(CCCc1ccccc1)C(=O)N[C@@H](CCCNC(=N)N)C(=O)O` (single isomer, unassigned) [Example 128], 27 nM.
`CC(C)C[C@H](NC(=O)CCNC(=O)[C@H](CC1CCCCC1)NC(=O)CCCCCN)C(=O)NC(CCCc1ccccc1)C(=O)N[C@@H](CCCNC(=N)N)C(=O)O` (single isomer, unassigned) [Example 115]: the Ki is 5600 nM.
As for `CC(C)C[C@H](NC(=O)CNC(=O)[C@H](CC1CCCCC1)N(C)C(=O)CCCCN)C(=O)NC(CCCc1ccccc1)C(=O)N[C@@H](CCCNC(=N)N)C(=O)O` (single isomer, unassigned) [Example 36], the figure is 9700 nM; as for `CC(C)C[C@H](NC(=O)CNC(=O)C=Cc1ccccc1[N+](=O)[O-])C(=O)N[C@H](CCCc1ccccc1)C(=O)N[C@@H](CCCNC(=N)N)C(=O)O` [Example 107, N-(2-Nitrocinnamoyl)-Glycyl-Leucyl-{(R)-2-Amino-5-phenylpentanoyl}-Arginyl-OH] (X4-GL[d(hhPhe)]R-OH), 87 nM; as for `CC(C)C[C@H](NC(=O)CNC(=O)[C@H](CC1CCCCC1)NC(=O)NCc1ccc(CN)cc1)C(=O)NC(CCCc1ccccc1)C(=O)N[C@@H](CCCNC(=N)N)C(=O)O` (mixture of isomers) [Example 145, N-[N-(4-Aminomethylbenzyl)aminocarbonyl]-{(2S)-2-Amino-3-cyclohexylpropanoyl}-Glycyl-Leucyl-{(R/S)-2-Amino-5-phenylpentanoyl}-Arginyl-OH], 7000 nM.
As for `N=C(N)NCCC[C@H](NC(=O)C(CCCc1ccccc1)NC(=O)CN(Cc1ccccc1)C(=O)[C@H](CCCCN)NC(=O)[C@@H](N)Cc1ccccc1)C(=O)O` (single isomer, unassigned) [Example 95, H-Phenylalanyl-Lysyl-Glycyl(N-benzyl)-{(R/S)-2-Amino-5-phenylpentanoyl}-Arginyl-OH], the figure is 34000 nM.
As for `CC(C)C[C@H](NC(=O)CNC(=O)[C@@H](N)CSCc1ccccc1)C(=O)N[C@H](CCCc1ccccc1)C(=O)N[C@@H](CCCNC(=N)N)C(=O)O` [Example 90, H-Cysteinyl(S-benzyl)-Glycyl-Leucyl-{(R)-2-Amino-5-phenylpentanoyl}-Arginyl-OH] (H-C(Bn)GL[d(hhPhe)]R-OH), the figure is 180 nM.
`CC(C)C[C@H](NC(=O)CNC(=O)[C@H](CC1CCCCC1)NCc1ccccc1)C(=O)N[C@H](CCCc1ccccc1)C(=O)N[C@@H](CCCNC(=N)N)C(=O)O` [Example 63, H-{(2S)-2-Amino-3-cyclohexylpropanoyl}(N-Benzyl)-Glycyl-Leucyl-{(R)-2-Amino-5-phenylpentanoyl}-Arginyl-OH] (H-[X5]GL[d(hhPhe)]R-OH): the inhibition constant Ki was 400 nM.
As for `CC(C)C[C@H](NC(=O)CNC(=O)[C@H](CC1CCCCC1)NC(=O)CN(C)C(=O)CCCN)C(=O)NC(CCCc1ccccc1)C(=O)N[C@@H](CCCNC(=N)N)C(=O)O` (mixture of isomers) [Example 113, N-(gamma-Aminobutyryl)-Sarcrosinyl-{(2S)-2-Amino-3-cyclohexyl-propanoyl}-Glycyl-Leucyl-{(R/S)-2-Amino-5-phenylpentanoyl}-Arginyl-OH], the figure is 870 nM; as for `CC(C)C[C@H](NC(=O)[C@H](C)NC(=O)[C@H](CC1CCCCC1)NC(=O)CCCCCN)C(=O)NC(CCCc1ccccc1)C(=O)N[C@@H](CCCNC(=N)N)C(=O)O` (single isomer, unassigned) [Example 135], 1300 nM; as for `CC(C)C[C@H](NC(=O)[C@H](CCCCN)NC(=O)[C@@H](N)CC1CCCCC1)C(=O)NC(CCCc1ccccc1)C(=O)N[C@@H](CCCNC(=N)N)C(=O)O` (single isomer, unassigned) [Example 96], 33200 nM.
For the compound `CC(C)C[C@H](NC(=O)CNC(=O)C=C1CNc2ccccc21)C(=O)N[C@H](CCCc1ccccc1)C(=O)N[C@@H](CCCNC(=N)N)C(=O)O` (single isomer, unassigned) [Example 65], the Ki came out at 300 nM.
As for `CC(C)C[C@H](NC(=O)CCCc1c[nH]c2ccccc12)C(=O)NC(CCCc1ccccc1)C(=O)N[C@@H](CCCNC(=N)N)C(=O)O` (mixture of isomers) [Example 30, N-(Indole-3-butyryl)-Leucyl-{(R/S)-2-Amino-5-phenylpentanoyl}-Arginyl-OH], the figure is 7100 nM; as for `CC(C)C[C@H](NC(=O)CNC(=O)[C@H](CC1CCCCC1)NC(=O)CCCCCN)C(=O)NC(CCCc1ccccc1)C(=O)N[C@@H](CCCNC(=N)N)C(=O)O` (single isomer, unassigned) [Example 70], 4500 nM.
As for `CC(C)C[C@H](NC(=O)CNC(=O)Cc1c[nH]c2ccccc12)C(=O)N[C@H](CCCc1ccccc1)C(=O)N[C@@H](CCCNC(=N)N)C(=O)O` [Example 50, N-(Indole-3-acetyl)-Glycyl-Leucyl-{(R)-2-Amino-5-phenylpentanoyl}-Arginyl-O] (X10-GL[d(hhPhe)]R-OH), the figure is 190 nM.
As for `CC(C)C[C@H](NC(=O)CNC(=O)[C@H](CC1CCCCC1)NC(=O)[C@H](N)CCCCN)C(=O)NC(CCCc1ccccc1)C(=O)N[C@@H](CCCNC(=N)N)C(=O)O` (single isomer, unassigned) [Example 57], the figure is 1930 nM; as for `CC(C)C[C@H](NC(=O)CNC(=O)[C@@H](N)CSC(C)c1ccccc1)C(=O)N[C@H](CCCc1ccccc1)C(=O)N[C@@H](CCCNC(=N)N)C(=O)O` (stereo partly drawn) [Example 91, H-Cysteinyl(S-1-phenethyl)-Glycyl-Leucyl-{(R)-2-Amino-5-phenylpentanoyl}-Arginyl-OH] (H-C(X12)GL[d(hhPhe)]R-OH), 390 nM; as for `CC(C)C[C@H](NC(=O)CNC(=O)[C@H](CC1CCCCC1)NC(=O)CCN)C(=O)NC(CCCc1ccccc1)C(=O)N[C@@H](CCCNC(=N)N)C(=O)O` (single isomer, unassigned) [Example 85], 2000 nM.
On to `CC(C)C[C@H](NC(=O)CNC(=O)[C@H](CC1CCCCC1)NC(=O)CCc1ccccc1)C(=O)N[C@H](CCCc1ccccc1)C(=O)N[C@@H](CCCNC(=N)N)C(=O)O` [Example 49, N-(3-Phenylpropanoyl)-{(2S)-2-Amino-3-cyclohexylpropanoyl}-Glycyl-Leucyl-{(R)-2-Amino-5-phenylpentanoyl}-Arginyl-OH] (Hydrocinnamoyl-[Cha]GL[d(hhPhe)]R-OH), for which the inhibition constant Ki was found to be 720 nM.
As for `CC(C)C[C@H](NC(=O)[C@H](C)NC(=O)[C@H](CC1CCCCC1)NC(=O)[C@@H]1CCCN1C(=O)[C@@H](N)CCCCN)C(=O)NC(CCCc1ccccc1)C(=O)N[C@@H](CCCNC(=N)N)C(=O)O` (single isomer, unassigned) [Example 68], the figure is 14000 nM; as for `CC(C)C[C@H](NC(=O)CNC(=O)[C@H](CC1CCCCC1)NC(=O)NCc1cccc(CN)c1)C(=O)NC(CCCc1ccccc1)C(=O)N[C@@H](CCCNC(=N)N)C(=O)O` (single isomer, unassigned) [Example 141], 16000 nM; as for `CC(C)C[C@H](NC(=O)CNC(=O)[C@H](CC1CCCCC1)NC(=O)[C@@H](N)CCCCN)C(=O)NC(CCCc1ccccc1)C(=O)N[C@@H](CCCNC(=N)N)C(=O)O` (single isomer, unassigned) [Example 41, H-Lysyl-{(2S)-2-Amino-3-cyclohexylpropanoyl}-Glycyl-Leucyl-{(R/S)-2-Amino-5-phenylpentanoyl}-Arginyl-OH], 25400 nM.
As for `CC(C)C[C@H](NC(=O)CNC(=O)C(N)CCCc1ccccc1)C(=O)N[C@H](CCCc1ccccc1)C(=O)N[C@@H](CCCNC(=N)N)C(=O)O` (single isomer, unassigned) [Example 104], the figure is 2400 nM; as for `CC(C)C[C@H](NC(=O)[C@@H](CCCCN)NC(=O)[C@@H](N)CC1CCCCC1)C(=O)NC(CCCc1ccccc1)C(=O)N[C@@H](CCCNC(=N)N)C(=O)O` (mixture of isomers) [Example 98, H-{(2S)-2-Amino-3-cyclohexylpropanoyl}-DLysyl-Leucyl-{(R/S)-2-Amino-5-phenylpentanoyl}-Arginyl-OH], 44700 nM.
